Here are results for two compounds from ChEMBL document CHEMBL1240319, “New approaches to molecular cancer therapeutics” (Nat Chem Biol, 2006).

The nature of the test: Inhibition of HSP90.

As for `CCNC(=O)c1n[nH]c(-c2cc(Cl)c(O)cc2O)c1-c1ccc(OC)cc1`, the IC50 stood at 0.025 µM. `CCc1cc(-c2[nH]nc(C)c2-c2ccc3c(c2)OCCO3)c(O)cc1O` yielded an IC50 of 9 µM.

For orientation: IC50 means the midpoint of a concentration-inhibition curve.
